Assay results taken from DBAASP.
Values after ≈ are worked out from the molar mass of the structure shown. Values joined by “and” are separate entries in the source; they are usually repeats but may differ in a detail not shown here. Identical values can stand only once.

Tests used:
Assay in all cases: ≥ marks a high value that may be exact or a test limit, other limits are often not marked, values filed in µg/mL are converted to µM
[1] = test system: Pseudomonas aeruginosa ATCC 27853
Pseudomonas aeruginosa = test system: Pseudomonas aeruginosa
[2] = test system: Staphylococcus aureus ATCC 25923
Escherichia coli = test system: Escherichia coli
Staphylococcus aureus = test system: Staphylococcus aureus
Klebsiella pneumoniae = test system: Klebsiella pneumoniae
[3] = test system: Escherichia coli BL21 (DE3)-NDM-1
[4] = test system: Staphylococcus epidermidis
[5] = test system: Candida albicans ATCC 10231
[6] = test system: Escherichia coli BL21(DE3)
Candida albicans = test system: Candida albicans
[7] = test system: Escherichia coli ATCC 25922
[8] = test system: Candida parapsilosis ATCC 22019
[9] = test system: Candida tropicalis ATCC 13803
[10] = test system: Candida glabrata ATCC 15126
Candida albicans SC5314 = test system: Candida albicans SC5314
Candida krusei ATCC 6258 = test system: Candida krusei ATCC 6258
[11] = test system: Staphylococcus aureus NBRC 12732
[12] = test system: Micrococcus luteus NBRC 12708
[13] = test system: Escherichia coli NBRC 14237
[14] = test system: Saccharomyces cerevisiae NBRC 10217
[15] = test system: Escherichia coli ESBL 63103
[16] = test system: Pseudomonas aeruginosa H103
Candida albicans C627 = test system: Candida albicans C627
[17] = test system: Staphylococcus aureus C623
[18] = test system: Pseudomonas aeruginosa LES400
[19] = test system: Pseudomonas aeruginosa 213
[20] = test system: Enterococcus faecium mic80
[21] = test system: Klebsiella pneumoniae ATCC 700603
[22] = test system: Staphylococcus epidermidis ATCC 35984
[23] = test system: Acinetobacter baumannii ATCC 19606
[24] = test system: Enterococcus faecalis ATCC 29212
[25] = test system: Enterococcus faecium ATCC 700221
[26] = test system: Staphylococcus epidermidis ATCC 12228
Escherichia coli UB1005 = test system: Escherichia coli UB1005
[27] = test system: Salmonella enterica subsp. enterica serovar Typhimurium C77-31
[28] = test system: Bacillus subtilis CMCC 63501
[29] = test system: Salmonella enterica subsp. enterica serovar Typhimurium ATCC 14028
[30] = test system: Staphylococcus aureus ATCC 29213
[31] = test system: Salmonella typhimurium ATCC 7731
[32] = test system: Salmonella enterica subsp. enterica serovar Pullorum C79-13
[33] = test system: Pseudomonas aeruginosa PAO1

SMILES: CC(C)C[C@H](NC(=O)[C@H](CCCCN)NC(=O)[C@H](CCCN=C(N)N)NC(=O)[C@H](Cc1ccccc1)NC(=O)[C@H](Cc1ccccc1)NC(=O)[C@H](CCCCN)NC(=O)[C@H](CCCN=C(N)N)NC(=O)[C@H](CC(C)C)NC(=O)[C@H](CC(C)C)NC(=O)[C@@H](N)CCCN=C(N)N)C(=O)N[C@@H](CCCCN)C(=O)N[C@@H](CCCCN)C(=O)N[C@@H](CO)C(=O)N[C@H](C(=O)O)C(C)C [RLLRKFFRKLKKSV]
- MIC [1]: 8.79 µM (≈ 16 µg/mL)
- MIC (Pseudomonas aeruginosa): 17.6 µM (≈ 32 µg/mL)
- MIC [2]: 35.2 µM (≈ 64 µg/mL)
- MIC (Escherichia coli): 17.6 µM (≈ 32 µg/mL)
- MIC (Staphylococcus aureus): 17.6 µM (≈ 32 µg/mL)
- MIC (Klebsiella pneumoniae): 17.6 µM (≈ 32 µg/mL)
- MIC [3]: 4.4 µM (≈ 8 µg/mL)
- MIC [4]: 17.6 µM (≈ 32 µg/mL)
- MIC [5]: 35.2 µM (≈ 64 µg/mL)
- MIC [6]: 8.79 µM (≈ 16 µg/mL)
- MIC (Candida albicans): 35.2 µM (≈ 64 µg/mL)
- MIC [7]: 17.6 µM (≈ 32 µg/mL)

SMILES: CC(C)C[C@H](NC(=O)[C@H](CC(C)C)NC(=O)[C@H](Cc1ccc(O)cc1)NC(=O)[C@H](CCCCN)NC(=O)[C@@H](N)CS)C(=O)N[C@@H](CCCN=C(N)N)C(=O)N[C@@H](Cc1c[nH]c2ccccc12)C(=O)N[C@@H](CCCN=C(N)N)C(=O)O [CKYLLRWR]
- MIC [8]: ≥ 87.9 µM
- MIC [9]: ≥ 44 µM
- MIC [10]: 22 µM (≈ 25 µg/mL)
- MIC (Candida albicans SC5314): ≥ 87.9 µM
- MIC (Candida krusei ATCC 6258): ≥ 44 µM

SMILES: CC[C@H](C)[C@H](NC(=O)[C@H](CC(C)C)NC(=O)[C@@H]1CCCN1C(=O)[C@H](CC(C)C)NC(=O)[C@H](CCCCN)NC(=O)[C@H](CCCCN)NC(=O)[C@H](CC(C)C)NC(=O)[C@H](CC(C)C)NC(=O)[C@H](C)NC(=O)[C@@H](NC(=O)[C@H](Cc1ccccc1)NC(=O)CN)C(C)C)C(=O)N[C@@H](CC(C)C)C(=O)N[C@@H](CCCCN)C(=O)N[C@@H](Cc1cnc[nH]1)C(=O)N[C@@H](CC(C)C)C(=O)N1CCC[C@H]1C(N)=O [GFVALLKKLPLILKHLP]
- MIC [11]: 3.12 µM (≈ 5.93 µg/mL)
- MIC [12]: 6.25 µM (≈ 11.9 µg/mL)
- MIC [13]: 3.12 µM (≈ 5.93 µg/mL)
- MIC [14]: 25 µM (≈ 47.5 µg/mL)

SMILES: CC[C@H](C)[C@H](N)C(=O)N[C@@H](Cc1c[nH]c2ccccc12)C(=O)N[C@@H](CCCCN)C(=O)N[C@@H](CCCN=C(N)N)C(=O)N[C@@H](Cc1c[nH]c2ccccc12)C(=O)N[C@@H](Cc1c[nH]c2ccccc12)C(=O)N[C@@H](Cc1c[nH]c2ccccc12)C(=O)N[C@@H](CCCCN)C(=O)N[C@@H](CCCN=C(N)N)C(=O)O [IWKRWWWKR]
- MIC [2]: 88.6 µM (≈ 128 µg/mL)
- MIC [15]: ≥ 44.3 µM
- MIC [16]: ≥ 88.6 µM
- MIC (Candida albicans C627): 22.1 µM (≈ 32 µg/mL)
- MIC [17]: ≥ 44.3 µM
- MIC [18]: ≥ 88.6 µM
- MIC [19]: ≥ 88.6 µM
- MIC [20]: ≥ 88.6 µM

SMILES: CC(C)C[C@H](NC(=O)[C@H](Cc1cnc[nH]1)NC(=O)[C@H](Cc1ccc(O)cc1)NC(=O)[C@H](CCCN=C(N)N)NC(=O)[C@H](Cc1ccc(O)cc1)NC(=O)[C@H](CCCCN)NC(=O)[C@@H](N)CCCCN)C(=O)N[C@@H](CCCCN)C(=O)N1CCC[C@H]1C(=O)N[C@@H](Cc1ccccc1)C(=O)N[C@@H](CS)C(=O)N[C@@H](CCCCN)C(=O)N[C@@H](CCCCN)C(=O)O [KKYRYHLKPFCKK]
- MIC [1]: > 294 µM
- MIC [21]: > 294 µM
- MIC [2]: 294 µM (≈ 512 µg/mL)
- MIC [22]: ≥ 73.6 µM
- MIC [23]: > 294 µM
- MIC [24]: 294 µM (≈ 512 µg/mL)
- MIC [25]: ≥ 147 µM
- MIC [7]: 147 µM (≈ 256 µg/mL)

SMILES: CC[C@H](C)[C@H](NC(=O)[C@H](CCCCN)NC(=O)[C@H](CCCCN)NC(=O)[C@H](Cc1ccccc1)NC(=O)[C@H](CC(C)C)NC(=O)[C@H](CCCCN)NC(=O)[C@H](Cc1c[nH]c2ccccc12)NC(=O)[C@@H](N)CCCCN)C(=O)O [KWKLFKKI]
- MIC [1]: > 64 µM and 128 µM
- MIC [26]: > 64 µM and 128 µM
- MIC (Escherichia coli UB1005): ≥ 128 µM
- MIC [27]: ≥ 128 µM
- MIC [28]: ≥ 64 µM
- MIC [29]: > 64 µM and 128 µM
- MIC [30]: > 64 µM and 128 µM
- MIC [31]: ≥ 64 µM
- MIC [32]: ≥ 128 µM
- MIC [33]: > 64 µM
- MIC [24]: > 64 µM and 128 µM
- MIC [7]: 64 µM and 128 µM
